Patent US8729089B2 (Gilead Sciences, Inc., priority 2006, dated 2014)

Legend:
[1] = tested on: HCV replicon in human hepatoma Huh-7 cell line; assay: Anti-HCV replicon assay (EC50, luciferase); assay type: cell-based; conditions: Hepatitis C virus, Huh-7, 72 h
Method in brief: (§1)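 Huh-7 cells carrying an HCV replicon (6000/well) exposed to 3-fold serial compound dilutions for 3 days at 37 °C, final DMSO 0.5% where used. EC50 read as replicon luciferase luminescence after cell lysis; CC50 from CellTiter-Glo luminescence after 10 min at room temperature.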

[2] = CC50 assay (CellTiter-Glo) in Huh-7 HCV replicon cells; assay type: cell-based, human; conditions: human, 3 days incubation, CellTiter-Glo readout
Method in brief: as §1

SMILES | EC50 [1] [µM] | CC50 at 3 days [2] [µM]
CCOc1nc(NCc2ccc(F)cc2)nc2ccc(-c3ccc(NC(=O)C4(N)CC4)cc3)nc12 [Example 99, 1-Amino-cyclopropanecarboxylic acid {4-[4-ethoxy-2-(4-fluoro-benzylamino)-pyrido[3,2-d]pyrimidin-6-yl]-phenyl}-amide] | < 0.1 | < 5
CCOc1nc(NCc2ccc(F)cc2)nc2ccc(-c3cnc(N)s3)nc12 [Example 100, [6-(2-Amino-thiazol-5-yl)-4-ethoxy-pyrido[3,2-d]pyrimidin-2-yl]-(4-fluoro-benzyl)-amine] | < 0.1 | < 5
CCOc1nc(NCc2ccc(F)cc2)nc2ccc(-c3ccc(NC(=O)C4(O)CC4)cc3)nc12 [Example 101, 1-Hydroxy-cyclopropanecarboxylic acid {4-[4-ethoxy-2-(4-fluoro-benzylamino)-pyrido[3,2-d]pyrimidin-6-yl]-phenyl}-amide] | < 0.1 | 5 to 25
CCOc1nc(NCc2ccc(F)cc2)nc2ccc(-c3cccc(N(CCO)S(C)(=O)=O)c3)nc12 [Example 102, N-{3-[4-Ethoxy-2-(4-fluoro-benzylamino)-pyrido[3,2-d]pyrimidin-6-yl]-phenyl}-N-(2-hydroxy-ethyl)-methanesulfonamide] | < 0.1 | 5 to 25
CCOc1nc(NCc2ccc(F)cc2)nc2ccc(-c3ccc(C(=O)NC(C)(C)CN4CCOCC4)cc3)nc12 [Example 103, N-(1,1-Dimethyl-2-morpholin-4-yl-ethyl)-4-[4-ethoxy-2-(4-fluoro-benzylamino)-pyrido[3,2-d]pyrimidin-6-yl]-benzamide] | < 0.1 | < 5
CCOc1nc(NCc2ccc(F)cc2)nc2ccc(-c3ccc(N4CCCC4=O)cc3)nc12 [Example 104, 1-{4-[4-Ethoxy-2-(4-fluoro-benzylamino)-pyrido[3,2-d]pyrimidin-6-yl]-phenyl}-pyrrolidin-2-one] | < 0.1 | 5 to 25
CCOc1nc(NCc2ccc(F)cc2)nc2ccc(-c3ccc(NC(=O)C(C)(C)N)cc3)nc12 [Example 105, 2-Amino-N-{4-[4-ethoxy-2-(4-fluoro-benzylamino)-pyrido[3,2-d]pyrimidin-6-yl]-phenyl}-2-methyl-propionamide] | < 0.1 | < 5
CCOc1nc(NCc2ccc(F)cc2F)nc2ccc(-c3ccc(C(=O)NC4CC4)cc3)nc12 [Example 107, N-Cyclopropyl-4-[2-(2,4-difluoro-benzylamino)-4-ethoxy-pyrido[3,2-d]pyrimidin-6-yl]-benzamide] | < 0.1 | 5 to 25
CCOc1nc(NCc2ccc(F)cc2F)nc2ccc(-c3ccc(F)cc3)nc12 [Example 108, (2,4-Difluoro-benzyl)-{4-ethoxy-6-(4-fluoro-phenyl)-pyrido[3,2-d]pyrimidin-2-yl]-amine] | < 0.1 | 5 to 25
CCOc1nc(NCc2ccc(S(N)(=O)=O)cc2)nc2ccc(-c3ccc(F)cc3)nc12 [Example 109, 4-{[4-ethoxy-6-(4-fluoro-phenyl)-pyrido[3,2-d]pyrimidin-2-ylamino]-methyl}-benzenesulfonamide] | < 0.1 | 5 to 25
NS(=O)(=O)c1ccc(CNc2nc(OC3CCCC3)c3nc(-c4ccc(F)cc4)ccc3n2)cc1 [Example 110, 4-{[4-Cyclopentyloxy-6-(4-fluoro-phenyl)-pyrido[3,2-d]pyrimidin-2-ylamino]-methyl}-benzenesulfonamide] | < 0.1 | 5 to 25
NS(=O)(=O)c1ccc(CNc2nc(OC3CCC3)c3nc(-c4ccc(F)cc4)ccc3n2)cc1 [Example 111, 4-{[4-Cyclobutoxy-6-(4-fluoro-phenyl)-pyrido[3,2-d]pyrimidin-2-ylamino]-methyl}-benzenesulfonamide] | < 0.1 | 5 to 25
CCCc1nc(NCc2ccc(S(N)(=O)=O)cc2)nc2ccc(-c3ccc(F)cc3)nc12 [Example 112, 4-{[6-(4-Fluoro-phenyl)-4-propyl-pyrido[3,2-d]pyrimidin-2-ylamino]-methyl}-benzenesulfonamide] | < 0.1 | < 5
CCOc1nc(N[C@H](C)c2ccccc2)nc2ccc(-c3ccc(F)cc3)nc12 [Example 113, [4-Ethoxy-6-(4-fluoro-phenyl)-pyrido[3,2-d]pyrimidin-2-yl]-(1-phenyl-ethyl)-amine] | < 0.1 | > 25
CCOc1nc(NCc2nccs2)nc2ccc(-c3ccc(F)cc3)nc12 [Example 114, [4-Ethoxy-6-(4-fluoro-phenyl)-pyrido[3,2-d]pyrimidin-2-yl]-thiazol-2-ylmethyl-amine] | < 0.1 | 5 to 25
CCOc1nc(NCc2cocn2)nc2ccc(-c3ccc(F)cc3)nc12 [Example 115, [4-Ethoxy-6-(4-fluoro-phenyl)-pyrido[3,2-d]pyrimidin-2-yl]-oxazol-4-ylmethyl-amine] | < 0.1 | 5 to 25

SMILES | EC50 [1] [µM] | CC50 at 3 days [2] [µM]
CCOc1nc(NCc2ccon2)nc2ccc(-c3ccc(F)cc3)nc12 [Example 116, [4-Ethoxy-6-(4-fluoro-phenyl)-pyrido[3,2-d]pyrimidin-2-yl]-isoxazol-3-ylmethyl-amine] | < 0.1 | > 25
CCOc1nc(NCc2ccc(CS(=O)(=O)NC(C)C)cc2)nc2ccc(-c3ccc(F)cc3)nc12 [Example 117, C-(4-{[4-Ethoxy-6-(4-fluoro-phenyl)-pyrido[3,2-d]pyrimidin-2-ylamino]-methyl}-phenyl)-N-isopropyl-methanesulfonamide] | < 0.1 | 5 to 25
CCOc1nc(NCCc2ccccc2)nc2ccc(-c3ccc(F)cc3)nc12 [Example 118, [4-Ethoxy-6-(4-fluoro-phenyl)-pyrido[3,2-d]pyrimidin-2-yl]-phenethyl-amine] | < 0.1 | 5 to 25
CCOc1nc(NCc2ccc(S(C)(=O)=O)cc2)nc2ccc(-c3ccc(F)cc3)nc12 [Example 119, [4-Ethoxy-6-(4-fluoro-phenyl)-pyrido[3,2-d]pyrimidin-2-yl]-(4-methanesulfonyl-benzyl)-amine] | < 0.1 | < 5
CCOc1nc(NCc2ccc(S(N)(=O)=O)cc2)nc2ccc(-c3ccc(NC(=O)[C@H]4CCNC4)c(F)c3)nc12 [Example 120, (S)-4-{[4-Ethoxy-6-(3-fluoro-4-(pyrrolidine-3-carboxamido)-phenyl)-pyrido[3,2-d]pyrimidin-2-ylamino]-methyl}-benzenesulfonamide] | < 0.1 | 5 to 25
CCOc1nc(NCc2ccc(S(N)(=O)=O)cc2)nc2ccc(-c3ccc(NC(=O)[C@H]4CCNC4)cc3)nc12 [Example 121, (S)-4-{[4-Ethoxy-6-(4-(pyrrolidine-3-carboxamido)-phenyl)-pyrido[3,2-d]pyrimidin-2-ylamino]-methyl}-benzenesulfonamide] | < 0.1 | > 25
CCOc1nc(NCc2ccc(S(N)(=O)=O)cc2)nc2ccc(-c3ccc(N4CCC(O)C4=O)cc3)nc12 (centres unmarked) [Example 122, 4-{[4-Ethoxy-6-(4-(3-hydroxy-2-oxopyrrolidin-1-yl)-phenyl)-pyrido[3,2-d]pyrimidin-2-ylamino]-methyl}-benzenesulfonamide] | < 0.1 | > 25
CCOc1nc(NCc2ccc(S(N)(=O)=O)cc2)nc2ccc(-c3ccc(NC(=O)NCCN4CCOCC4)cc3)nc12 [Example 123, 4-{[4-Ethoxy-6-(4-(3-(2-(morpholin-4-yl)ethyl)ureido)-phenyl)-pyrido[3,2-d]pyrimidin-2-ylamino]-methyl}-benzenesulfonamide] | < 0.1 | 5 to 25
CCOc1nc(NCc2ccc(S(N)(=O)=O)cc2)nc2ccc(-c3ccc(NC(=O)NCCN4CCCC4)cc3)nc12 [Example 124, 4-{[4-Ethoxy-6-(4-(3-(2-(pyrrolidin-1-yl)ethyl)ureido)-phenyl)-pyrido[3,2-d]pyrimidin-2-ylamino]-methyl}-benzenesulfonamide] | < 0.1 | 5 to 25
CCOc1nc(NCc2ccc(S(N)(=O)=O)cc2)nc2ccc(-c3ccc(NC(=O)OCCN4CCCC4)cc3)nc12 [Example 125] | < 0.1 | < 5
CCOc1nc(NCc2ccc(S(N)(=O)=O)cc2)nc2ccc(-c3cnc(N)s3)nc12 [Example 126, 4-{[4-Ethoxy-6-(2-aminothiazole-5-yl)-pyrido[3,2-d]pyrimidin-2-ylamino]-methyl}-benzenesulfonamide] | < 0.1 | < 5
CCOc1nc(NCc2ccc(S(N)(=O)=O)cc2)nc2ccc(-c3ccc(F)c(Cl)c3)nc12 [Example 127, 4-{[4-Ethoxy-6-(3-chloro-4-fluorophenyl)-pyrido[3,2-d]pyrimidin-2-ylamino]-methyl}-benzenesulfonamide] | < 0.1 | < 5
CCOc1nc(NCc2ccc(S(N)(=O)=O)cc2)nc2ccc(-c3ccc(NC(=O)N4CCOCC4)cc3)nc12 [Example 128, 4-{[4-Ethoxy-6-(4-(morpholine-4-carboxamido)-phenyl)-pyrido[3,2-d]pyrimidin-2-ylamino]-methyl}-benzenesulfonamide] | < 0.1 | 5 to 25
CCOc1nc(NCc2ccc(S(N)(=O)=O)cc2)nc2ccc(-c3ccc(NC(=O)N4CCCC4)cc3)nc12 [Example 129, 4-{[4-Ethoxy-6-(4-(pyrrolidine-1-carboxamido)-phenyl)-pyrido[3,2-d]pyrimidin-2-ylamino]-methyl}-benzenesulfonamide] | < 0.1 | > 25
CCOc1nc(NCc2ccc(S(N)(=O)=O)cc2)nc2ccc(-c3ccc(NC(N)=O)cc3)nc12 [Example 130, 4-{[4-Ethoxy-6-(4-ureidophenyl)-pyrido[3,2-d]pyrimidin-2-ylamino]-methyl}-benzenesulfonamide] | < 0.1 | 5 to 25
